For twelve compounds, IC50 results are on record in patent US20240270741A1 (Cogent Biosciences, Inc., priority 2023, published 2024).

One test deals with FGFR2 (Homo sapiens, UniProt P21802). Description: FGFR wild type enzyme assay (HTRF KinEASE-TK), FGFR2. Particulars: Enz FGFR2 (nM).
Sequence of FGFR2 (P21802 399-821 limits assumed): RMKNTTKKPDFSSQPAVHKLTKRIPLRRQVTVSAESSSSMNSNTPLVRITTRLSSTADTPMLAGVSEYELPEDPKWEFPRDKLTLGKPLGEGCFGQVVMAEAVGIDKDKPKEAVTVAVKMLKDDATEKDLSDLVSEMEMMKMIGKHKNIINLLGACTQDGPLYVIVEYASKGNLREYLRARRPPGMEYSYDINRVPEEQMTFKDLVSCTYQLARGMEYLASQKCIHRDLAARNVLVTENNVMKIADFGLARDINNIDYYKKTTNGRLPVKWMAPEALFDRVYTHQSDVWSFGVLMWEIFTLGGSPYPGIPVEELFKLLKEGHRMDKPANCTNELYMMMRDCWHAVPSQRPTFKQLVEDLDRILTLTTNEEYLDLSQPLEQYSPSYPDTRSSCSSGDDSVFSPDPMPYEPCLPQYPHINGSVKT
Method: Activity against FGFR wild type and mutant enzymes were determined in biochemical assays using purified intracellular domains of the respective isoforms using HTRF KinEASE-TK assay technology from CisBio, now PerkinElmer. (Catalogue number 62TK0PEC). Briefly test compounds were tested in 11 point 1:3 serial dilutions, typical final concentration ranges from 10,000 nM to 0.17 nM. Test compounds were dissolved in DMSO and added to assay plates using acoustic transfer. Enzyme was pre-incubated with test compound for 30 minutes and the assay was initiated by addition of ATP and TK-peptide substrate. After 60 minutes at room temperature the reaction was quenched with detection reagent and incubated for an additional 60 minutes at room temperature. The plates were read using a multimode reader and the emission ratio of 665 nm to 615 nm was determined. This ratio was converted to percent of control (POC). [1-(high control-sample signal)/(high control-low control)]*100. Wells without compound were used to determine high control values and wells without enzyme were used to determine low control values. The POC values were fit using a four-parameter logistic model and the value where the fit curve was equal to 50 POC was reported as the IC50 using the Signals Vitro Vivo software package (PerkinElmer). Final assay conditions were: 50 mM HEPES pH7.5, 10 mM MgCl2, 1 mM EDTA, 0.01% Brij-35, 2 mM MnCl2, 1 mM DTT, and 0.5 uM TK-peptide.
Usually IC50 stands for the concentration that inhibits the measured activity by half. High values mean a need for much substance, low ones inhibition by little substance. For the compound `Cc1cc(F)cc(Sc2cc(-c3cnn([C@H]4CCCNC4)c3)cn3ncc(C#N)c23)n1` [Example 78, 4-[(4-fluoro-6-methyl-2-pyridyl)sulfanyl]-6-[1-[(3S)-3-piperidyl]pyrazol-4-yl]pyrazolo[1,5-a]pyridine-3-carbonitrile], the IC50 came to 27 nM.

Compound `N#Cc1cnn2cc(-c3cnn([C@H]4CCCNC4)c3)cc(SC3CCOC3)c12` (stereo partly drawn) [Example 58, 6-[1-[(3S)-3-piperidyl]pyrazol-4-yl]-4-tetrahydrofuran-3-ylsulfanyl-pyrazolo[1,5-a]pyridine-3-carbonitrile] had an IC50 of 4 nM.

The compound `Cc1nc(Sc2cc(-c3cnn(C4CCNCC4)c3C)cn3ncc(C#N)c23)ccc1F` [Example 114, 4-[(5-fluoro-6-methyl-2-pyridyl)sulfanyl]-6-[5-methyl-1-(4-piperidyl)pyrazol-4-yl]pyrazolo[1,5-a]pyridine-3-carbonitrile] gave an IC50 of 3 nM.

Staying with this test, now noted: Enz FGFR2 (nM), FGFR2 wild type enzyme.
The compound `N#Cc1cnn2cc(-c3cnn([C@H]4CC[C@@H](O)CC4)c3)cc(Sc3ncccc3F)c12` [Example 293, 4-((3-fluoropyridin-2-yl)thio)-6-(1-((1s,4s)-4-hydroxycyclohexyl)-1H-pyrazol-4-yl)pyrazolo[1,5-a]pyridine-3-carbonitrile] returned an IC50 of 1 nM.

Compound `CC(=O)N1CCC[C@H](n2ncc(-c3cc(Sc4ncc(F)cc4F)c4c(C#N)cnn4c3)c2C)C1` [Example 190, (S)-6-(1-(1-acetylpiperidin-3-yl)-5-methyl-1H-pyrazol-4-yl)-4-((3,5-difluoropyridin-2-yl)thio)pyrazolo[1,5-a]pyridine-3-carbonitrile] displayed an IC50 of 3 nM.

In turn, `Cc1c(-c2cc(Sc3ncccc3F)c3c(C#N)cnn3c2)cnn1[C@H]1CC[C@@H](NCC(=O)N(C)C)CC1` [Example 269, 2-(((1s,4s)-4-(4-(3-cyano-4-((3-fluoropyridin-2-yl)thio)pyrazolo[1,5-a]pyridin-6-yl)-5-methyl-1H-pyrazol-1-yl)cyclohexyl)amino)-N,N-dimethylacetamide] had an IC50 of 1 nM.

Still in this test, the particulars now being: Enz FGFR2 (nM), FGFR2 wild type enzyme assay.
In turn, `Cc1c(-c2cc(Sc3ccc(F)cc3C#N)c3c(C#N)cnn3c2)cnn1C[C@H](O)CO` [Example 531, (S)-4-((2-cyano-4-fluorophenyl)thio)-6-(1-(2,3-dihydroxypropyl)-5-methyl-1H-pyrazol-4-yl)pyrazolo[1,5-a]pyridine-3-carbonitrile] showed an IC50 of 11 nM.

`CC(=O)N[C@H]1CC[C@H](n2cc(-c3cc(Sc4ccccc4C#N)c4c(C#N)cnn4c3)cn2)CC1` [Example 574, N-((1r,4r)-4-(4-(3-cyano-4-((2-cyanophenyl)thio)pyrazolo [1,5-a]pyridin-6-yl)-1H-pyrazol-1-yl)cyclohexyl)acetamide] came in with an IC50 of 1 nM.

As for `Cn1cc(-c2cc(Sc3ccccn3)c3c(C#N)cnn3c2)cn1` [Example 616, 6-(1-methyl-1H-pyrazol-4-yl)-4-(pyridin-2-ylthio)pyrazolo[1,5-a]pyridine-3-carbonitrile], the IC50 worked out at 6 nM.

Consider `N#Cc1ccccc1Sc1cc(-c2cnn(CC(=O)N3CC[C@H](O)C3)c2)cn2ncc(C#N)c12` [Example 651, (S)-4-((2-cyanophenyl)thio)-6-(1-(2-(3-hydroxypyrrolidin-1-yl)-2-oxoethyl)-1H-pyrazol-4-yl)pyrazolo[1,5-a]pyridine-3-carbonitrile], for which it took 1 nM to reach half-maximal inhibition (IC50).

For the compound `CN1CC[C@@H](n2cc(-c3cc(Sc4ccccc4C#N)c4c(C#N)cnn4c3)cn2)C1` [Example 604, (R)-4-((2-cyanophenyl)thio)-6-(1-(1-methylpyrrolidin-3-yl)-1H-pyrazol-4-yl)pyrazolo[1,5-a]pyridine-3-carbonitrile], the IC50 was 0.5 nM.

`CS(=O)(=O)N1CCC[C@H](n2cc(-c3cc(Sc4ccccc4C#N)c4c(C#N)cnn4c3)cn2)C1` [Example 514, (S)-4-((2-cyanophenyl)thio)-6-(1-(1-(methylsulfonyl)piperidin-3-yl)-1H-pyrazol-4-yl)pyrazolo[1,5-a]pyridine-3-carbonitrile] gave an IC50 of 1 nM.
